According to ChEMBL document CHEMBL1141059, “3-(2-Aminoethyl)pyridine analogs as alpha4beta2 nicotinic cholinergic receptor ligands” (Bioorg Med Chem Lett, 2005):

Each compound was assayed against Neuronal acetylcholine receptor; alpha4/beta2 (Rattus norvegicus, UniProt P09483+P12390) (assay: Binding affinity for rat brain Nicotinic acetylcholine receptor alpha4-beta2 using [3H]S-(-)-nicotine).
Sequence of Neuronal acetylcholine receptor; alpha4/beta2 (P09483 whole entry): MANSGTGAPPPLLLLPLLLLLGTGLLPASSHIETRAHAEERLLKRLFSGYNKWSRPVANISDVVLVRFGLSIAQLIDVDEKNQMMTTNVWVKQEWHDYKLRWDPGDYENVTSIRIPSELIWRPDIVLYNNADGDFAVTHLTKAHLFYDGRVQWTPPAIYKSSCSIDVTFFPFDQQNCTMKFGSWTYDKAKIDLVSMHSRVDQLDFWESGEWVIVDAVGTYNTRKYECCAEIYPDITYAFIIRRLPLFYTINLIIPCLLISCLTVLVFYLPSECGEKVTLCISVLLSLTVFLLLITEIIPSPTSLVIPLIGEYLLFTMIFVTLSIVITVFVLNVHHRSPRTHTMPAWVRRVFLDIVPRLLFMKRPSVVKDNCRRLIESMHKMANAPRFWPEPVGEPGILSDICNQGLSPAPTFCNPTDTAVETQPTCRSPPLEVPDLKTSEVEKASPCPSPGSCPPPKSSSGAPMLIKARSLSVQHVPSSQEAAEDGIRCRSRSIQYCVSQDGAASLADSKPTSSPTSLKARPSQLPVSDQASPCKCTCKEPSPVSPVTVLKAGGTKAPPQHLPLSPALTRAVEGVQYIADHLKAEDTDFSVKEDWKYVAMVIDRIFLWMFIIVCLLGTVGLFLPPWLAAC
Sequence of Neuronal acetylcholine receptor; alpha4/beta2 (P12390 whole entry): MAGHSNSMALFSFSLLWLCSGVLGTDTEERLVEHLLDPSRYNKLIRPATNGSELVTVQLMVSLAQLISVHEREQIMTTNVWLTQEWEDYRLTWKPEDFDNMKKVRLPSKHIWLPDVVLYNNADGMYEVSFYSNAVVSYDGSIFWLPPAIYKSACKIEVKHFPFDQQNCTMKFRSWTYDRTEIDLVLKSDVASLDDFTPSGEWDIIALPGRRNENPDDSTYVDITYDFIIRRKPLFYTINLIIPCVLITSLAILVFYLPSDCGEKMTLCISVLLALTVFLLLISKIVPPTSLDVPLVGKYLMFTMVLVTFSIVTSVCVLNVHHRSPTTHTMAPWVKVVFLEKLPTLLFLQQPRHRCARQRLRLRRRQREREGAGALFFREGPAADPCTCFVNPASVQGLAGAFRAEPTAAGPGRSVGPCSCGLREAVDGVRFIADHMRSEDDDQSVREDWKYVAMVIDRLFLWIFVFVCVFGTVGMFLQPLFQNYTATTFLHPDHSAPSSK
For `CCN(C)CCc1ccc(CCc2ccc(OC)cc2)nc1`, the Ki was greater than 10000 nM.
With `CCN(C)CCc1cncc(OC)c1` the Ki was 19 nM.
`CCN(C)CCc1cnccc1N` was tested, and the Ki was greater than 10000 nM.
`CCN(C)CCc1cncc(Br)c1` was tested, and the Ki was 360 nM.
With `CCN(C)CCc1ccc(Br)nc1` the Ki was 83 nM.
With `CCN(C)CCc1cncc(Cl)c1` the Ki was 310 nM.
`CCN(C)CCc1ccc(C)nc1` showed a Ki of 240 nM.
In the case of `CCN(C)CCc1ccc(Cl)nc1`, the Ki is reported as 70 nM.
`CCN(C)CCc1cnccc1OC` was tested, and the Ki was 1840 nM.
Compound `CCN(C)CCc1ccc(CCc2ccc(Cl)cc2)nc1` has a Ki greater than 10000 nM.
`CCN(C)CCc1cncc(C)c1` showed a Ki of 370 nM.
